Test results reported in patent EP1501554B1, “BENZOTHIENYL ANALOGUE OF SOMATOSTATINE, SELECTIVE FOR CERTAIN SOMATOSTATIN RECEPTORS” (Advanced Accelerator Applications USA, Inc., priority 2002, dated 2003).
Where two headings read alike, the source gives them in different places.

What was measured:
hsst 5 [1] = target: T1, hsst 5 (Homo sapiens, UniProt P35346); assay: In vitro binding affinity, transfected cell lines, hsst 5; conditions: IC50±SEM; applicant's series, with own SS-28 reference
T1 construct: expressed in transfected cells
T1 sequence (P35346 whole entry): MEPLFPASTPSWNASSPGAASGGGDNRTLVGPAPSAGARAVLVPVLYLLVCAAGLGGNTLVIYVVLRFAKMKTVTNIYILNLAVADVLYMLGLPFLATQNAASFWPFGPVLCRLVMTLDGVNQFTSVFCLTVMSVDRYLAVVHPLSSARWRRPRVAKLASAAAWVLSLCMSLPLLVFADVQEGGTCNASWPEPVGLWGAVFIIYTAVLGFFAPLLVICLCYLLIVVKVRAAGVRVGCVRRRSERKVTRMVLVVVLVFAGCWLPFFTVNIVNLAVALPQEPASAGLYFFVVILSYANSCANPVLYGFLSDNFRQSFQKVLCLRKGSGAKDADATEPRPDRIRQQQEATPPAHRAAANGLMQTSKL

hsst 3 [2] = target: T2, hsst 3 (Homo sapiens, UniProt P32745); assay: In vitro binding affinity, transfected cell lines, hsst 3; conditions: IC50±SEM; applicant's series, with own SS-28 reference
T2 construct: expressed in transfected cells
T2 sequence (P32745 whole entry): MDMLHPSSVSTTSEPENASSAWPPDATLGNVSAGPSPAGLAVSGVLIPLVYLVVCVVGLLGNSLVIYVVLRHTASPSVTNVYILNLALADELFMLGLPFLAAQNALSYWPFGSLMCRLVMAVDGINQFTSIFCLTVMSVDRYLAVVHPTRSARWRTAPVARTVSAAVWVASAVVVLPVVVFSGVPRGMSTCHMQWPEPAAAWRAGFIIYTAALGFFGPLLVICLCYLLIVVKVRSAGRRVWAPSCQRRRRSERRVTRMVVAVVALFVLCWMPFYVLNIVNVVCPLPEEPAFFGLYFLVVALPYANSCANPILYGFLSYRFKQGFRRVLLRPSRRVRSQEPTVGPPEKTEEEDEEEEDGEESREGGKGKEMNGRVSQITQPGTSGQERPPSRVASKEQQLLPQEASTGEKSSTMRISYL

hsst 2 [3] = target: T3, hsst 2 (Homo sapiens, UniProt P30874); assay: In vitro binding affinity, transfected cell lines, hsst 2; conditions: IC50±SEM; applicant's series, with own SS-28 reference
T3 construct: expressed in transfected cells
T3 sequence (P30874 whole entry): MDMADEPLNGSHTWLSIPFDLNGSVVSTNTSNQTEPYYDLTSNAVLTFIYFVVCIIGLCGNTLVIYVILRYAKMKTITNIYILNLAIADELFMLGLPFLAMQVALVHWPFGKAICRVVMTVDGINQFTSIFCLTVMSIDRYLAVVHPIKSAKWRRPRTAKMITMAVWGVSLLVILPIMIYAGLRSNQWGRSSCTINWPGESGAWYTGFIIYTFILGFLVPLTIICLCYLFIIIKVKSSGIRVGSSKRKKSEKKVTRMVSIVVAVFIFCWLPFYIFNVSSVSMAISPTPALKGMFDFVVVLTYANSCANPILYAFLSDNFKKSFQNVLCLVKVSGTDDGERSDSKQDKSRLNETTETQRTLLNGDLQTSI

hsst 4 [4] = target: T4, hsst 4 (Homo sapiens, UniProt P31391); assay: In vitro binding affinity, transfected cell lines, hsst 4; conditions: IC50±SEM; applicant's series, with own SS-28 reference
T4 construct: expressed in transfected cells
T4 sequence (P31391 whole entry): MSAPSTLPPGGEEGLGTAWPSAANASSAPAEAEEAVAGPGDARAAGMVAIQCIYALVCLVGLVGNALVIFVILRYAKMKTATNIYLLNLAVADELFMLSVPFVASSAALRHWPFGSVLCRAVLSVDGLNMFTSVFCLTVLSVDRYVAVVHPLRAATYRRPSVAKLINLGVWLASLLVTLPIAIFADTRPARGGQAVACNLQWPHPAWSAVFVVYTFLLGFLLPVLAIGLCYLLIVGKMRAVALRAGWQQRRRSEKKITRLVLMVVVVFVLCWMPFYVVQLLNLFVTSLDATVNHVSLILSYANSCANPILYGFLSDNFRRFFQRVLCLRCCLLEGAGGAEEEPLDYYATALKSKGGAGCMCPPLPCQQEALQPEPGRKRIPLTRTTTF

hsst 4 [5] = target: T4, hsst 4; conditions: IC50±SEM; published series (Reubi et al.), referenced to SS-28; cited from earlier work
hsst 2 [6] = target: T3, hsst 2; conditions: IC50±SEM; published series (Reubi et al.), referenced to SS-28; cited from earlier work
hsst 5 [7] = target: T1, hsst 5; conditions: IC50±SEM; published series (Reubi et al.), referenced to SS-28; cited from earlier work
hsst 3 [8] = target: T2, hsst 3; conditions: IC50±SEM; published series (Reubi et al.), referenced to SS-28; cited from earlier work

| Compound | IC50 (hsst 5 [1]) [nM] | IC50 (hsst 3 [2]) [nM] | IC50 (hsst 2 [3]) [nM] | IC50 (hsst 4 [4]) [nM] | IC50 (hsst 4 [5]) [nM] | IC50 (hsst 2 [6]) [nM] | IC50 (hsst 5 [7]) [nM] | IC50 (hsst 3 [8]) [nM] |
| --- | --- | --- | --- | --- | --- | --- | --- | --- |
| Y-DOTA-OC [compound 4] | – | – | – | – | > 1000 | 20 ± 2 | – | – |
| Y-DOTA-TOC [cpd. 6] | – | – | – | – | > 10000 | 11 ± 1.7 | – | – |
| Y-DOTA-LAN [cpd. 5] | – | – | – | – | > 1000 | 23 ± 5 | 16 ± 3.4 | 290 ± 105 |

Now from value to compound, other results behind:

| IC50 (hsst 5 [1]) [nM] | IC50 (hsst 3 [2]) [nM] | IC50 (hsst 2 [3]) [nM] | IC50 (hsst 4 [4]) [nM] | Compound | IC50 (hsst 4 [5]) [nM] | IC50 (hsst 2 [6]) [nM] | IC50 (hsst 5 [7]) [nM] | IC50 (hsst 3 [8]) [nM] |
| --- | --- | --- | --- | --- | --- | --- | --- | --- |
| 2.1 | 27 | 0.43 | 60 | C[C@@H](O)[C@H](NC(=O)[C@@H]1CSSC[C@H](NC(=O)[C@H](N)Cc2ccccc2)C(=O)N[C@@H](Cc2csc3ccccc23)C(=O)N[C@H](Cc2c[nH]c3ccccc23)C(=O)N[C@@H](CCCCN)C(=O)N[C@@H]([C@@H](C)O)C(=O)N1)C(=O)O [compound 13, H-(D)Phe-cyclo[Cys-3-benzothienylalanyl-(D)Trp-Lys-Thr-Cys]-Thr-OH] | – | – | – | – |
| 4 | 7 | 1.1 | 110 | C[C@@H](O)[C@H](NC(=O)[C@@H]1CSSC[C@H](NC(=O)[C@@H](Cc2ccccc2)NC(=O)CN2CCN(CC(=O)O)CCN(CC(=O)O)CCN(CC(=O)O)CC2)C(=O)N[C@@H](Cc2csc3ccccc23)C(=O)N[C@H](Cc2c[nH]c3ccccc23)C(=O)N[C@@H](CCCCN)C(=O)N[C@@H]([C@@H](C)O)C(=O)N1)C(=O)O [cpd. 11, ^111In-labelled DOTA-(D)Phe-cyclo[Cys-3-benzothienylalanyl-(D)Trp-Lys-Thr-Cys]Thr-OH, metal not drawn] | – | – | – | – |
| 10 ± 1.6 | 26 ± 1.9 | 3.3 ± 0.2 | > 1000 | C[C@@H](O)[C@@H]1NC(=O)[C@H](CCCCN)NC(=O)[C@@H](Cc2c[nH]c3ccccc23)NC(=O)[C@H](Cc2cccc3ccccc23)NC(=O)[C@@H](NC(=O)[C@@H](Cc2ccccc2)NC(=O)CN2CCN(CC(=O)O)CCN(CC(=O)O)CCN(CC(=O)O)CC2)CSSC[C@@H](C(=O)N[C@H](CO)[C@@H](C)O)NC1=O [cpd. 8, Y-DOTA-[1-Nal^3]-OC] | – | – | – | – |
